Results on 47 compounds are retold here after patent publication US11884627B2, “Compounds and compositions for treating conditions associated with LPA receptor activity” (Lhotse Bio, Inc., priority 2022, dated 2024).

The structures appear in SMILES notation. Like-named read-outs stand apart in the source and are kept apart here.

For this experiment, the target named is T1, human LPA1 (Homo sapiens, UniProt Q92633).
T1 construct: expressed in transfected cells; host or cells: CHO-K1
The experiment is described as follows: In vitro LPA1 calcium flux antagonist assay - Bioduro protocol. The format is cell-based. The settings on record: CHO-K1 cells overexpressing human LPA1 and G15a, LPA challenge at EC80. An outline of the steps: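 CHO-K1 cells overexpressing human LPA1 and G15a, serum-starved 4 h, loaded with Fluo-8 AM plus 2.5 mM probenecid in HBSS/20 mM Hepes for 30 min at 37 °C. Compound preincubated 30 min, then LPA challenge at EC80; FLIPR calcium signal, % inhibition relative to DMSO and LPA controls.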

[1] abbreviates: calcium mobilization on FLIPR Tetra, read-out: IC50.
The mark [2] stands for this setting: Table B3, read-out: Activity (IC50 class).

T1 sequence (Q92633 whole entry): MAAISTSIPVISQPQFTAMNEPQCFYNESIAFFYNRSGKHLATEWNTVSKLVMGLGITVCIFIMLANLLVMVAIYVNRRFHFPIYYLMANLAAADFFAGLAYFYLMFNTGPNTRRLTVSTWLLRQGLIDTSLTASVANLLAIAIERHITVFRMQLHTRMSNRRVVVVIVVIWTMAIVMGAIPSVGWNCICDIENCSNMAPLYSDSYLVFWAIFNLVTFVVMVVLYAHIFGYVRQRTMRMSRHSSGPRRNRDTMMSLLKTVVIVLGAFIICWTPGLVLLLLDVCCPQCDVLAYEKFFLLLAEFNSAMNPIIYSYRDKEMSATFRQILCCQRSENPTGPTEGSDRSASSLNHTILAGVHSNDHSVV

Take `CCOc1cccc(-c2ccc(NC3(C(=O)O)CCC(F)(F)CC3)cc2COC2CC2)c1C` [Compound 383]: the IC50 was 0.847 nM under setting [1] and less than 100 nM under setting [2].

Take `COc1cc(-c2ccc(NC3(C(=O)O)CC3)cc2COC2Cc3ccccc3C2)cc(OC)c1C(C)=O` [Compound 121, 1-({4′-acetyl-2-[(2,3-dihydro-1H-inden-2-yloxy)methyl]-3′,5′-dimethoxy-[1,1′-biphenyl]-4-yl}amino)cyclopropane-1-carboxylic acid]: the IC50 under setting [1] was 13.5 nM and the IC50 under setting [2] was less than 100 nM.

Consider `CCCCOCc1cc(NC2(C(=O)O)CCOCC2)ccc1-c1cc(OC)c(C)c(OCC)c1F` [Compound 400], for which the IC50 under setting [1] was 5.37 nM and the IC50 under setting [2] was less than 100 nM.

For the compound `CCc1c(-c2ccc(NC3(C(=O)O)CCOCC3)cc2COC2CCCC2)cc(OC)c(C)c1OC` [Compound 203], the IC50 under setting [1] came to 26 nM and the IC50 under setting [2] is less than 100 nM.

With `O=C(O)C1(Nc2ccc(-c3cccc(OC4CC4)c3F)c(COC3CCCC3)c2)CCOCC1` [Compound 265, 4-((2-((cyclopentyloxy)methyl)-3′-cyclopropoxy-2′-fluoro-[1,1′-biphenyl]-4-yl)amino)tetrahydro-2H-pyran-4-carboxylic acid], the IC50 is 12 nM under setting [1] and less than 100 nM under setting [2].

Consider `COc1cc(OC)c(Cl)c(-c2ccc(NC3(C(=O)O)CCOCC3)cc2COC2CC2)c1` [Compound 303], for which the IC50 reads like this: under setting [1], 12.3 nM; under setting [2], less than 100 nM.

`CCCCOCc1cc(NC2(C(=O)O)CCOCC2)ccc1-c1cncc(OCC)c1C(F)F` [Compound 404]: the IC50 under setting [1] is 13 nM and the IC50 under setting [2] is less than 100 nM.

For `COc1cc(-c2ccc(NC3(C(=O)O)CCOCC3)cc2COC2CCCC2)c(F)c(C2CC2)c1` [Compound 240], the IC50 reads like this: under setting [1], 23.4 nM; under setting [2], less than 100 nM.

Take `CCOc1cccc(-c2ccc(NC3(C(=O)O)CCOCC3)cc2COC2CCCC2)c1C` [Compound 229, 4-((2-((cyclopentyloxy)methyl)-3′-ethoxy-2′-methyl-[1,1′-biphenyl]-4-yl)amino)tetrahydro-2H-pyran-4-carboxylic acid]: the IC50 is 5.28 nM under setting [1] and less than 100 nM under setting [2].

Take `COc1cc(-c2ccc(NC3(C(=O)O)CCNCC3)cc2COC2CCCC2)cc(OC)c1C` [Compound 142]: the IC50 was greater than 10000 nM under setting [1] and greater than 1000 nM under setting [2].

In the case of `COc1cc(-c2ccc(NC3(C(=O)O)CCOCC3)cc2COC2CCCC2)c(F)c(OC)c1C(C)O` (stereo not shown) [Compound 300], the IC50 reads like this: under setting [1], 35.3 nM; under setting [2], less than 100 nM.

As for `COc1cc(-c2ccc(NC3(C(=O)O)CCOCC3)cc2COC2CCCC2)c(F)c(OC)c1C(C)=O` [Compound 271], the IC50 is, setting by setting: under setting [1], 21.4 nM; under setting [2], less than 100 nM.

Regarding `CCOc1cc(-c2ccc(NC3(C(=O)O)CCOCC3)cc2COC2CC2)cc(OC)c1C` [Compound 329], the IC50 runs as follows: under setting [1], 61.9 nM; under setting [2], less than 100 nM.

In the case of `COc1cc(-c2ccc(NC3(C(=O)O)CCOCC3)cc2COC2CCCC2)cc(OC)c1C` [Compound 134, 4-({2-[(cyclopentyloxy)methyl]-3′,5′-dimethoxy-4′-methyl-[1,1′-biphenyl]-4-yl}amino)-oxane-4-carboxylic acid], the IC50 is 90.6 nM under setting [1] and less than 100 nM under setting [2].

Turning to `COc1cc(-c2ccc(NC3(C(=O)O)CCOCC3)cc2COC2CCCC2)c(C)c(OC)c1C` [Compound 148, 4-((2-((cyclopentyloxy)methyl)-3′,5′-dimethoxy-2′,4′-dimethyl-[1,1′-biphenyl]-4-yl)amino)tetrahydro-2H-pyran-4-carboxylic acid], the IC50 by setting is: under setting [1], 10.5 nM; under setting [2], less than 100 nM.

Consider `COc1cc(-c2c(C)cc(NC3(C(=O)O)CCOCC3)cc2CCC2CCOC2)cc(OC)c1C` (stereo not shown) [Compound 309], for which the IC50 is, setting by setting: under setting [1], 37.7 nM; under setting [2], less than 100 nM.

For `COc1cc(-c2ccc(NC3(C(=O)O)CCN(C)CC3)cc2COC2CCCC2)cc(OC)c1C` [Compound 138], the IC50 under setting [1] was 174 nM and the IC50 under setting [2] lay within 100 to 1000 nM.

For `COc1cc(-c2ccc(NCC(=O)O)cc2COC2Cc3ccccc3C2)cc(OC)c1C` [Compound 108], the IC50 reads like this: under setting [1], 1880 nM; under setting [2], greater than 1000 nM.

Take `CCOc1cncc(-c2ccc(C3(C(=O)O)CC3)cc2COC2CCCC2)c1C(F)F` [Compound 412]: the IC50 under setting [1] worked out at 538 nM and the IC50 under setting [2] lay in the range of 100 to 1000 nM.

Turning to `CCOc1cc(OC)cc(-c2ccc(NC3(C(=O)O)CCOCC3)cc2COC2CC2)c1` [Compound 316], the IC50 under setting [1] was found to be 1080 nM and the IC50 under setting [2] is greater than 1000 nM.

As to `CCOc1cccc(-c2ccc(NC3(C(=O)O)CCOCC3)cc2COC2CCCC2)c1C(F)F` [Compound 244], the IC50 under setting [1] stood at 2.73 nM and the IC50 under setting [2] is less than 100 nM.

As to `COc1cc(-c2ccc(OC3(C(=O)O)CCOCC3)cc2COC2CCCC2)c(Cl)c(OC)n1` [Compound 230], the IC50 runs as follows: under setting [1], 139 nM; under setting [2], 100 to 1000 nM.

As for `COC(=O)N1CCCC(Nc2cc(C)c(-c3cc(OC)cc(OC)c3)c(COC3CCCC3)c2)(C(=O)O)C1` (stereo not shown) [Compound 211], the IC50 reads like this: under setting [1], greater than 10000 nM; under setting [2], greater than 1000 nM.

For `CCOc1cncc(-c2ccc(NC3(C(=O)O)CCOCC3)cc2COCCC(C)C)c1C(F)F` [Compound 413, 4-({4-[4-(difluoromethyl)-5-ethoxypyridin-3-yl]-3-[(3-methylbutoxy)methyl]phenyl}amino) oxane-4-carboxylic acid], the IC50 runs as follows: under setting [1], 5.79 nM; under setting [2], less than 100 nM.

For the compound `COC(=O)N1CC(Nc2ccc(-c3cc(OC)c(C)c(OC)c3C)c(COC3CCCC3)c2)(C(=O)O)C1` [Compound 195], the IC50 reads like this: under setting [1], 760 nM; under setting [2], greater than 1000 nM.

Consider `COc1cc(-c2ccc(NC3(C(=O)O)CCC(F)(F)CC3)cc2COC2CC2)cc(OC)c1C` [Compound 348], for which the IC50 runs as follows: under setting [1], 69.5 nM; under setting [2], less than 100 nM.

Regarding `COc1cc(OC)c(C)c(-c2ccc(NC3(C(=O)O)CCOCC3)cc2COC2CCCC2)c1` [Compound 179], the IC50 runs as follows: under setting [1], 24.9 nM; under setting [2], less than 100 nM.

`COc1cc(OC2CC2)c(F)c(-c2ccc(OC3(C(=O)O)CCOCC3)cc2COC2CC2)c1` [Compound 344]: the IC50 was 106 nM under setting [1] and 100 to 1000 nM under setting [2].

Turning to `COc1cc(-c2ccc(NC3(C(=O)O)CC(OC)C3)cc2COC2Cc3ccccc3C2)cc(OC)c1C` (single isomer, unassigned) [Compound 126], the IC50 runs as follows: under setting [1], 32.1 nM; under setting [2], less than 100 nM.

Take `CCOc1cccc(-c2ccc(OC3(C(=O)O)CCC3)cc2COC2CC2)c1C(F)F` [Compound 375]: the IC50 was 24.3 nM under setting [1] and less than 100 nM under setting [2].

Turning to `COc1cc(OC)c(Cl)c(-c2ccc(NC3(C(=O)O)CCOCC3)cc2COC2CCCC2)c1` [Compound 257], the IC50 is, setting by setting: under setting [1], 8.41 nM; under setting [2], less than 100 nM.

As to `CCOc1c(C)ccc(-c2ccc(NC3(C(=O)O)CCOCC3)cc2COC2CC2)c1C` [Compound 313], the IC50 is 5.93 nM under setting [1] and less than 100 nM under setting [2].

As for `COCc1cccc(-c2ccc(NC3(C(=O)O)CCOCC3)cc2COC2CC2)c1C(F)F` [Compound 311], the IC50 reads like this: under setting [1], 148 nM; under setting [2], 100 to 1000 nM.

In the case of `CCOc1cncc(-c2ccc(NC3(C(=O)O)CCCC3)cc2COC2CC2)c1C` [Compound 417], the IC50 under setting [1] was determined as 35.8 nM and the IC50 under setting [2] was less than 100 nM.

As for `COC(=O)NC1CCC(Nc2ccc(-c3cc(OC)c(C)c(OC)c3)c(COC3CCCC3)c2)(C(=O)O)CC1` (stereo not shown) [Compound 208], the IC50 reads like this: under setting [1], 56.4 nM; under setting [2], less than 100 nM.

Consider `COc1cc(C2CC2)cc(-c2ccc(NC3(C(=O)O)CCOCC3)cc2COC2CCCC2)c1F` [Compound 251], for which the IC50 reads like this: under setting [1], 40.2 nM; under setting [2], less than 100 nM.

As to `COc1cc2c(c(-c3ccc(NC4(C(=O)O)CCOCC4)cc3COC3CCCC3)c1)CCO2` [Compound 198], the IC50 is, setting by setting: under setting [1], 232 nM; under setting [2], 100 to 1000 nM.

As for `CCCOc1cccc(-c2ccc(NC3(C(=O)O)CCOCC3)cc2COC2CC2)c1F` [Compound 307], the IC50 reads like this: under setting [1], 58.4 nM; under setting [2], less than 100 nM.

Regarding `CCOC1CC(Nc2ccc(-c3cc(OC)c(C)c(OC)c3C)c(COC3CCCC3)c2)(C(=O)O)C1` (stereo not shown) [Compound 213], the IC50 under setting [1] came to 58.7 nM and the IC50 under setting [2] was less than 100 nM.

For `COc1cc(OC)c(F)c(-c2ccc(NC3(C(=O)O)CCOCC3)cc2COC2CCCC2)c1` [Compound 226], the IC50 by setting is: under setting [1], 22.2 nM; under setting [2], less than 100 nM.

Take `COc1cc(OC)nc(-c2c(C)cc(NC3(C(=O)O)CCOCC3)cc2COC2CCCC2)c1` [Compound 170]: the IC50 was 1500 nM under setting [1] and greater than 1000 nM under setting [2].

As for `COc1cc(OC)c(C)c(-c2c(F)cc(NC3(C(=O)O)CCOCC3)cc2COC2CCCC2)c1` [Compound 180], the IC50 by setting is: under setting [1], 39.7 nM; under setting [2], less than 100 nM.

For `CCOc1cccc(-c2ccc(NC3(C(=O)O)CCCC3)cc2COC2CC2)c1C(F)F` [Compound 376], the IC50 was 1.03 nM under setting [1] and less than 100 nM under setting [2].

On to `CCOc1cccc(-c2ccc(NC3(C(=O)O)CCOCC3)cc2CCC2CC2)c1C(F)F` [Compound 296], for which the IC50 reads like this: under setting [1], 2.4 nM; under setting [2], less than 100 nM.

With `CCOc1cc(OC)cc(-c2ccc(NC3(C(=O)O)CCOCC3)cc2COC2CCCC2)c1F` [Compound 287], the IC50 is, setting by setting: under setting [1], 2.46 nM; under setting [2], less than 100 nM.

On to `COc1cc(-c2ccc(NC3(C(=O)O)CCOCC3)cc2COC2CCC2)c(F)c(OC)c1C` [Compound 263], for which the IC50 runs as follows: under setting [1], 60.4 nM; under setting [2], less than 100 nM.

`COc1cc(-c2ccc(C3(C(=O)O)CCOCC3)cc2COC2CCCC2)cc(OC)c1C` [Compound 234]: the IC50 was 5190 nM under setting [1] and greater than 1000 nM under setting [2].

Broadly, the IC50 is the concentration that inhibits the measured activity by half.
